Test results published in ChEMBL document CHEMBL3882729, “Receptor-type kinase modulators and methods of use” (2009).

Tests used:
[1] = target: Vascular endothelial growth factor receptor 2 (Homo sapiens, UniProt P35968); test: Inhibition of recombinant human N-terminal GST-fused KDR (D807 to V1356 residues) expressed in baculovirus infected […] insect Sf9 cells using poly-EY as substrate after 240 mins by luciferase coupled chemiluminescence assay
[2] = target: T1, Ephrin type-B receptor 4 (Homo sapiens, UniProt P54760); test: Inhibition of recombinant human N-terminal His6-tagged EphB4 kinase domain (E605 to E890 residues) expressed in baculovirus using poly-AEKY as substrate after 150 mins in presence of gamma33P-ATP by liquid scintillation spectrometry
T1 sequence (P54760 whole entry): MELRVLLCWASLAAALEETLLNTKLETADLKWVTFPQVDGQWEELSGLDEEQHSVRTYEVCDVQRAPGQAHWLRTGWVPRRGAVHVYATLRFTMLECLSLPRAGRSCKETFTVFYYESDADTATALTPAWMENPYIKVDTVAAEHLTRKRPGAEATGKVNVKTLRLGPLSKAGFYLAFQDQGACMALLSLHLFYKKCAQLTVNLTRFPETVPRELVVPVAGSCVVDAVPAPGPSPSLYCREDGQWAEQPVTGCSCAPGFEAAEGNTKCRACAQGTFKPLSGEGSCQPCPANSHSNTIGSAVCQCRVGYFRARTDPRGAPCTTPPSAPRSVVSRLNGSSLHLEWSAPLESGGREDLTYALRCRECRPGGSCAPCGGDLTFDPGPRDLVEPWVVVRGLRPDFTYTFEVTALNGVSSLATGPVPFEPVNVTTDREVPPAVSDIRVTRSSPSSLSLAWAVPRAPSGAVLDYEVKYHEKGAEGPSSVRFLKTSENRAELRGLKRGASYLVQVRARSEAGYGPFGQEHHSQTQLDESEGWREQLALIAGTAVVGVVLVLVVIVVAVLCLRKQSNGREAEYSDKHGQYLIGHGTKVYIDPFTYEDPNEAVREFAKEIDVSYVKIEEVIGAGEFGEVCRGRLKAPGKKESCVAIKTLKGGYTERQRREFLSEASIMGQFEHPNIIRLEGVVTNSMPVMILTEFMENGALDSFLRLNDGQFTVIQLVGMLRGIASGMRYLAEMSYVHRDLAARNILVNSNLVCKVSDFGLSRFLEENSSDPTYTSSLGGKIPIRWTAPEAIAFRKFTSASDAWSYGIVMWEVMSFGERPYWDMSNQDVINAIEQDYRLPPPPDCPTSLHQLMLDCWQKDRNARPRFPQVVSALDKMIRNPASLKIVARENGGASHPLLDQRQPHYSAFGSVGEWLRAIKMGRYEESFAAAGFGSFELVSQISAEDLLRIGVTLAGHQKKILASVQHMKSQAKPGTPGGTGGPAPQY

[3] = target: Ephrin type-A receptor 2 (Homo sapiens, UniProt P29317); test: Inhibition of recombinant human N-terminal His6-tagged EphA2 (N598 to R890 residues) expressed in baculovirus using poly-EY as substrate after 180 mins by luciferase coupled chemiluminescence assay
Ephrin type-A receptor 2, sequence (P29317 whole entry, the tested form may be a part): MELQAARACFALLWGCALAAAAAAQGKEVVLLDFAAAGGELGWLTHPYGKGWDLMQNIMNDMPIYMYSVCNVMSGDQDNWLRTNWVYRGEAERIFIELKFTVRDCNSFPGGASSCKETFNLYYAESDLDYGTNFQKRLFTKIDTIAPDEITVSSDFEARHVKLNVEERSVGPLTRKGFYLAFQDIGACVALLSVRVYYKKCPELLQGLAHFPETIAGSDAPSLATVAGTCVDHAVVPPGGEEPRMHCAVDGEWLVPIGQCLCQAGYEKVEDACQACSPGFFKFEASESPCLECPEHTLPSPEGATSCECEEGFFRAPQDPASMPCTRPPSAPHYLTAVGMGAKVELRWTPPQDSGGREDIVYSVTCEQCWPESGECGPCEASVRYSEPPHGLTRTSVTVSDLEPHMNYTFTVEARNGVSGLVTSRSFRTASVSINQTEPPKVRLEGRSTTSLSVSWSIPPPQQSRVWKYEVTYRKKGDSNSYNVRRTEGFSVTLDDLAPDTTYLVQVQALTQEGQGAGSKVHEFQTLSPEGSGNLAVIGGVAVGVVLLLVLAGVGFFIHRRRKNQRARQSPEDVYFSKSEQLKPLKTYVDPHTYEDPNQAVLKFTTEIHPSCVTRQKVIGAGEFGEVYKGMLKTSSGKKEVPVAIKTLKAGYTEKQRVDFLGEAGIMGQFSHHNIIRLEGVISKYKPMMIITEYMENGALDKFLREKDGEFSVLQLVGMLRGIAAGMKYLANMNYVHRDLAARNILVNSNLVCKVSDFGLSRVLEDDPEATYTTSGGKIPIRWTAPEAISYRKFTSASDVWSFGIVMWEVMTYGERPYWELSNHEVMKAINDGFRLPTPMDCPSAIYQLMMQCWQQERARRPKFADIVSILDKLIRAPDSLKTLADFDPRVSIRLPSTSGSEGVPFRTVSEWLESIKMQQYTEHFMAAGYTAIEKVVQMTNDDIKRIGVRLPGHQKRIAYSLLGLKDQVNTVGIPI

Vascular endothelial growth factor receptor 2, sequence (P35968 whole entry, the tested form may be a part): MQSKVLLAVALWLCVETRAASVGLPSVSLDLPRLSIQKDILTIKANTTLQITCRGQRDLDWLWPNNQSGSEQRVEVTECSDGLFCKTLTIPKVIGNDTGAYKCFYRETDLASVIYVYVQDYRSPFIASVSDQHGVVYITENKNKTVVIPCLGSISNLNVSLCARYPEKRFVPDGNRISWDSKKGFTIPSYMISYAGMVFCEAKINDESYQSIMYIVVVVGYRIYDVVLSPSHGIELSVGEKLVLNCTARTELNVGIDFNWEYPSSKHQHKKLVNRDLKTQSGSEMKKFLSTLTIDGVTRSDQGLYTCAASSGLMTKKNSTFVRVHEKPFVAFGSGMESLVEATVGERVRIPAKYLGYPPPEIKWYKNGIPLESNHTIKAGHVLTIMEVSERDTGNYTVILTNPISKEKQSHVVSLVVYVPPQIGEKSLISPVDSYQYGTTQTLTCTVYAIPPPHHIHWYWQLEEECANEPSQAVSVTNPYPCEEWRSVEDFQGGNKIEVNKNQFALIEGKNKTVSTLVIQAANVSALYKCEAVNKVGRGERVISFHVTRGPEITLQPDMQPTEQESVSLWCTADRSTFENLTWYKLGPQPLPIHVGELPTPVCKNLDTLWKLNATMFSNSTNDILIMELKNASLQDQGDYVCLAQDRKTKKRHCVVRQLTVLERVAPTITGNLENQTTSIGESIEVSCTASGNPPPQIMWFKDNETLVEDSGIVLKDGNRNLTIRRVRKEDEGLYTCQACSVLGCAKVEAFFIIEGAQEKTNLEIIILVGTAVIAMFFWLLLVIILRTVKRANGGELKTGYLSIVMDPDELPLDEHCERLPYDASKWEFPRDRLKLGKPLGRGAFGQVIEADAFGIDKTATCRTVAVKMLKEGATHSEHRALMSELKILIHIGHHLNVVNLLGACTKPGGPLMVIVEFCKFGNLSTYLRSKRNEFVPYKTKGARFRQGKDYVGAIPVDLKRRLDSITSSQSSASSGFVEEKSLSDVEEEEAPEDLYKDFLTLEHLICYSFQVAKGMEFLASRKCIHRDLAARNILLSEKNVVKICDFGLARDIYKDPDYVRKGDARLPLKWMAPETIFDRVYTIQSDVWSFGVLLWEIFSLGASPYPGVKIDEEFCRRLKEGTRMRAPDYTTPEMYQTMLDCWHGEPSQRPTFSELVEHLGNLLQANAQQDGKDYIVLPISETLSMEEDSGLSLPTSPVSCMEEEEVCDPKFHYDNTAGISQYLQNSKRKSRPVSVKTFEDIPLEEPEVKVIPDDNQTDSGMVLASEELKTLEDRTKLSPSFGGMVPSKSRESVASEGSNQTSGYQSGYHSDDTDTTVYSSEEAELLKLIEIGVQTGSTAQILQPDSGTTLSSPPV

| Compound | IC50 [1] | IC50 [2] | IC50 [3] |
| --- | --- | --- | --- |
| CCCCS(=O)(=O)N1CCOC(COc2cc3ncnc(Nc4ccc(Cl)c(Cl)c4)c3cc2OC)C1 (stereo not drawn) | 0.05 to 1 µM | 0.05 to 1 µM | 0.05 to 1 µM |
| CCC(C(=O)N1CCOC(COc2cc3ncnc(Nc4ccc(Cl)c(Cl)c4)c3cc2OC)C1)c1ccccc1 (stereo not drawn) | 0.05 to 1 µM | 0.05 to 1 µM | 1 to 20 µM |
| COc1cc2c(Nc3ccc(Cl)c(Cl)c3)ncnc2cc1OCC1CN(C(C)C(C)=O)CCO1 (stereo not drawn) | 0.05 to 1 µM | 0.05 to 1 µM | 0.05 to 1 µM |
| COc1cc2c(Nc3ccc(Cl)c(Cl)c3)ncnc2cc1OCC1CN(C/C=C/Br)CCO1 (stereo not drawn) | 0.05 to 1 µM | 0.05 to 1 µM | 0.05 to 1 µM |
| COc1cc2c(Nc3ccc(Cl)c(Cl)c3)ncnc2cc1OCC1CN(S(=O)(=O)Cc2ccccc2)CCO1 (stereo not drawn) | 0.05 to 1 µM | 0.05 to 1 µM | 0.05 to 1 µM |
| COc1cc2c(Nc3ccc(Cl)c(Cl)c3)ncnc2cc1OCC1CN(CC2CCCCC2)CCCO1 (stereo not drawn) | < 0.05 µM | 0.05 to 1 µM | 0.05 to 1 µM |
| COc1cc2c(Nc3ccc(Cl)c(Cl)c3)ncnc2cc1OCC1CN(CCC2CCCCC2)CCCO1 (stereo not drawn) | 0.05 to 1 µM | 0.05 to 1 µM | 0.05 to 1 µM |
| COc1cc2c(Nc3ccc(Cl)c(Cl)c3)ncnc2cc1OCC1CN(CCc2ccccc2)CCO1 (stereo not drawn) | 0.05 to 1 µM | 0.05 to 1 µM | 1 to 20 µM |
| COc1cc2c(Nc3ccc(Cl)c(Cl)c3)ncnc2cc1OCC1CN(C(=O)CCc2ccccc2)CCO1 (stereo not drawn) | 0.05 to 1 µM | 0.05 to 1 µM | 0.05 to 1 µM |
| CCC(CC)CN1CCCOC(COc2cc3ncnc(Nc4ccc(Cl)c(Cl)c4)c3cc2OC)C1 (stereo not drawn) | 0.05 to 1 µM | 0.05 to 1 µM | 0.05 to 1 µM |
| CCCCCN1CCOC(COc2cc3ncnc(Nc4ccc(Cl)c(Cl)c4)c3cc2OC)C1 (stereo not drawn) | 0.05 to 1 µM | 0.05 to 1 µM | 0.05 to 1 µM |
| COc1cc2c(Nc3ccc(Cl)c(Cl)c3)ncnc2cc1OCC1CN(C(=O)c2c(F)ccc(F)c2F)CCO1 (stereo not drawn) | 0.05 to 1 µM | 0.05 to 1 µM | 0.05 to 1 µM |
| CCCCCC(=O)N1CCOC(COc2cc3ncnc(Nc4ccc(Cl)c(Cl)c4)c3cc2OC)C1 (stereo not drawn) | 0.05 to 1 µM | 0.05 to 1 µM | 0.05 to 1 µM |
| COc1cc2c(Nc3ccc(Cl)c(Cl)c3)ncnc2cc1OCC1CN(CC=C(C)C)CCO1 (stereo not drawn) | 0.05 to 1 µM | 0.05 to 1 µM | 0.05 to 1 µM |
| CCCCCCN1CCOC(COc2cc3ncnc(Nc4ccc(Cl)c(Cl)c4)c3cc2OC)C1 (stereo not drawn) | 0.05 to 1 µM | 0.05 to 1 µM | 0.05 to 1 µM |
| COc1cc2c(Nc3ccc(Cl)c(Cl)c3)ncnc2cc1OCC1CN(S(=O)(=O)c2ccccc2)CCO1 (stereo not drawn) | 0.05 to 1 µM | 0.05 to 1 µM | 1 to 20 µM |
| CCN1CCN(CC)C(COc2cc3ncnc(Nc4ccc(Cl)c(Cl)c4)c3cc2OC)C1 (stereo not drawn) | 1 to 20 µM | 0.05 to 1 µM | 0.05 to 1 µM |
| COc1cc2c(Nc3ccc(Br)cc3F)ncnc2cc1OCC1CCN(C(N)=NC#N)CC1 | < 0.05 µM | 0.05 to 1 µM | 0.05 to 1 µM |
| COc1cc2c(Nc3ccc(Cl)c(Cl)c3)ncnc2cc1OCC1CN(C(=O)Cc2ccc(Cl)cc2)CCO1 (stereo not drawn) | 0.05 to 1 µM | 0.05 to 1 µM | 1 to 20 µM |
| COc1cc2c(Nc3ccc(Cl)c(Cl)c3)ncnc2cc1OCC1CN(C(=O)CCC(C)C)CCO1 (stereo not drawn) | 0.05 to 1 µM | 0.05 to 1 µM | 0.05 to 1 µM |
| COc1cccc(CC(=O)N2CCOC(COc3cc4ncnc(Nc5ccc(Cl)c(Cl)c5)c4cc3OC)C2)c1 (stereo not drawn) | 0.05 to 1 µM | 0.05 to 1 µM | 0.05 to 1 µM |

| Compound | IC50 [1] | IC50 [2] | IC50 [3] |
| --- | --- | --- | --- |
| C=CCN1CCOC(COc2cc3ncnc(Nc4ccc(Cl)c(Cl)c4)c3cc2OC)C1 (stereo not drawn) | 0.05 to 1 µM | 0.05 to 1 µM | 0.05 to 1 µM |
| COc1cc2c(Nc3ccc(Cl)c(Cl)c3)ncnc2cc1OCC1CN(CCC(C)C)CCCO1 (stereo not drawn) | 0.05 to 1 µM | 0.05 to 1 µM | 0.05 to 1 µM |
| COc1cc2c(Nc3ccc(Cl)c(Cl)c3)ncnc2cc1OCC1CN(C2CCN(C)CC2)CCO1 (stereo not drawn) | < 0.05 µM | < 0.05 µM | 0.05 to 1 µM |
| CCCCC(CC)C(=O)N1CCOC(COc2cc3ncnc(Nc4ccc(Cl)c(Cl)c4)c3cc2OC)C1 (stereo not drawn) | 0.05 to 1 µM | 0.05 to 1 µM | 0.05 to 1 µM |
| COc1cc2c(Nc3cccc(Cl)c3F)ncnc2cc1OCC1CN(C)CCO1 (stereo not drawn) | 0.05 to 1 µM | 0.05 to 1 µM | 0.05 to 1 µM |
| COc1cc2c(Nc3ccc(Cl)c(Cl)c3)ncnc2cc1OCC1CN(CCF)CCO1 (stereo not drawn) | 0.05 to 1 µM | 0.05 to 1 µM | 0.05 to 1 µM |
| COc1cc2c(Nc3ccc(Cl)c(Cl)c3)ncnc2cc1OCC1CN(S(=O)(=O)c2ccc(F)cc2)CCO1 (stereo not drawn) | 0.05 to 1 µM | 0.05 to 1 µM | 1 to 20 µM |
| CCCC(CCC)C(=O)N1CCOC(COc2cc3ncnc(Nc4ccc(Cl)c(Cl)c4)c3cc2OC)C1 (stereo not drawn) | 0.05 to 1 µM | 0.05 to 1 µM | 0.05 to 1 µM |
| COc1cc2c(Nc3ccc(Cl)c(Cl)c3)ncnc2cc1OCC1CN(CCCOC2CCCCO2)CCCO1 (stereo not drawn) | < 0.05 µM | < 0.05 µM | 0.05 to 1 µM |
| COc1cc2c(Nc3ccc(Cl)c(Cl)c3)ncnc2cc1OCC1OCCN(CC(=O)c2ccccc2)C1=O (stereo not drawn) | 0.05 to 1 µM | 0.05 to 1 µM | 0.05 to 1 µM |
| CCC(=O)CN1CCOC(COc2cc3ncnc(Nc4ccc(Cl)c(Cl)c4)c3cc2OC)C1 (stereo not drawn) | 0.05 to 1 µM | 0.05 to 1 µM | 0.05 to 1 µM |
| COc1cc2c(Nc3ccc(Cl)c(Cl)c3)ncnc2cc1OCC1CN(C(=O)c2ccoc2)CCO1 (stereo not drawn) | 0.05 to 1 µM | < 0.05 µM | 0.05 to 1 µM |
| COc1cc2c(Nc3ccc(Cl)c(Cl)c3)ncnc2cc1OCC1CN(S(=O)(=O)c2ccc(C)cc2)CCO1 (stereo not drawn) | 0.05 to 1 µM | 1 to 20 µM | 1 to 20 µM |
| CCCCCCCN1CCOC(COc2cc3ncnc(Nc4ccc(Cl)c(Cl)c4)c3cc2OC)C1 (stereo not drawn) | 0.05 to 1 µM | 0.05 to 1 µM | 1 to 20 µM |
| CCCCCCCCN1CCOC(COc2cc3ncnc(Nc4ccc(Cl)c(Cl)c4)c3cc2OC)C1 (stereo not drawn) | 1 to 20 µM | 0.05 to 1 µM | 1 to 20 µM |
| COc1cc2c(Nc3ccc(Cl)c(Cl)c3)ncnc2cc1OCC1CN(C(=O)c2cc(F)ccc2F)CCO1 (stereo not drawn) | 0.05 to 1 µM | 0.05 to 1 µM | 0.05 to 1 µM |
| COc1cc2c(Nc3ccc(Cl)c(Cl)c3)ncnc2cc1OCC1CN(CCCCF)CCO1 (stereo not drawn) | < 0.05 µM | < 0.05 µM | 0.05 to 1 µM |
| CCCCc1ccc(C(=O)N2CCOC(COc3cc4ncnc(Nc5ccc(Cl)c(Cl)c5)c4cc3OC)C2)cc1 (stereo not drawn) | 1 to 20 µM | 1 to 20 µM | 1 to 20 µM |
| CC[C@@H](C)CN1CCOC(COc2cc3ncnc(Nc4ccc(Cl)c(Cl)c4)c3cc2OC)C1 (stereo partly drawn) | 0.05 to 1 µM | 0.05 to 1 µM | 0.05 to 1 µM |
| CCCC(C)C(=O)N1CCOC(COc2cc3ncnc(Nc4ccc(Cl)c(Cl)c4)c3cc2OC)C1 (stereo not drawn) | 0.05 to 1 µM | 0.05 to 1 µM | 0.05 to 1 µM |
